The text below walks through data of patent US20070117770A1, “Human ribosomal DNA (rDNA) and ribosomal RNA (rRNA) nucleic acids and uses thereof” (Cylene Pharmaceuticals, Inc., priority 2005, published 2007).

Each structure is given as a SMILES string.

What all share (assay): Protein kinase inhibition assay
What all share (assay type): biochemical

In one assay the target is TrkB(h) (Homo sapiens, UniProt Q16620). To be noted: read-out: percent residual activity of TrkB(h). As for the experimental part: (§1) Certain compounds were tested for activity in protein kinase inhibition assays. All substrates were dissolved and diluted to working stocks in de-ionized water, apart from histone H1 (10× working stock in 20 mM MOPS pH 7.0), PDKtide (10× working stock in 50 mM Tris pH 7.0) ATF2 (which is typically stored at a 20× working stock in 50 mM Tris pH 7.5, 150 mM NaCl, 0.1 mM EGTA, 0.03% Brij-35, 50% glycerol, 1 mM benzamidine, 0.2 mM PMSF and 0.1% R-mercaptoethanol), KKLNRTLSFAEPG (SEQ ID NO:203) and RRRLSFAEPG (SEQ ID NO:204) (50 mM HEPES pH 7.4) and GGEEEEYFELVKKKK (SEQ ID NO:205) (20 mM MOPS pH 7.0). All kinases were pre-diluted to a 10× working concentration prior to addition into the assay. The composition of the dilution buffer for each kinase is detailed below.
Sequence of TrkB(h) (Q16620 32-822): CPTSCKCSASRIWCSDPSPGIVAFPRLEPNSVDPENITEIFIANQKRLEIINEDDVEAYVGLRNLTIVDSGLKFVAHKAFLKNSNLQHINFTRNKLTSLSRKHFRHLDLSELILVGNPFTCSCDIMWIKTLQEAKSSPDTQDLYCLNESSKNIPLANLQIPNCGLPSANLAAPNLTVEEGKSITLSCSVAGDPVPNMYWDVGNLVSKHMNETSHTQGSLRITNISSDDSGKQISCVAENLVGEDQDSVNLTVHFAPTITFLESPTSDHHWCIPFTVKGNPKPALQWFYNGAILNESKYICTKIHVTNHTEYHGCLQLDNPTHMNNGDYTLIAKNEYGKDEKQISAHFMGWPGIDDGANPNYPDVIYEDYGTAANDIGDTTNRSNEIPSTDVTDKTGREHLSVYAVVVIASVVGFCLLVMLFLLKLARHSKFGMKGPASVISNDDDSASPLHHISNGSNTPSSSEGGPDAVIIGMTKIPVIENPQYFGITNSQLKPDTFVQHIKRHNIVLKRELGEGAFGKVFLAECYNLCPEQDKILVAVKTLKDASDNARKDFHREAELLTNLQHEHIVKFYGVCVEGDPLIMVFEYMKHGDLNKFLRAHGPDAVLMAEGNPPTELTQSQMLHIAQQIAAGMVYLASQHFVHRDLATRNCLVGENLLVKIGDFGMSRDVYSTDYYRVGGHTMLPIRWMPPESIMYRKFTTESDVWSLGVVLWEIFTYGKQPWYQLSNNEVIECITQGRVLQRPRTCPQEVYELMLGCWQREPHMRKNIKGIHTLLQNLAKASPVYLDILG
(§2) In a final reaction volume of 25 μl, TrkB (h) (5-10 mU) is incubated with 8 mM MOPS pH 7.0, 0.2 mM EDTA, 0.1 mg/ml poly(Glu, Tyr) 4:1, 10 mM MgAcetate and [gamma-33P-ATP] (specific activity approx. 500 cpm/pmol, concentration as required). The reaction is initiated by the addition of the MgATP mix. After incubation for 40 minutes at room temperature, the reaction is stopped by the addition of 5 μl of a 3% phosphoric acid solution. 10 μl of the reaction is then spotted onto a Filtermat A and washed three times for 5 minutes in 75 mM phosphoric acid and once in methanol prior to drying and scintillation counting.

The target in a further assay is Ros(h) (Homo sapiens, UniProt P08922). To be noted: read-out: percent residual activity of Ros(h). As for the experimental part:
as §1
In a final reaction volume of 25 μl, Ros (h) (5-10 mU) is incubated with 8 mM MOPS pH 7.0, 0.2 mM EDTA, 10 mM MnCl2, 250 μM KKKSPGEYVNIEFG (SEQ ID NO:207), 10 mM MgAcetate and [gamma-33P-ATP] (specific activity approx. 500 cpm/pmol, concentration as required). The reaction is initiated by the addition of the MgATP mix. After incubation for 40 minutes at room temperature, the reaction is stopped by the addition of 5 μl of a 3% phosphoric acid solution. […]

The target in another assay is MAPKAP-K2(h) (Homo sapiens, UniProt P49137). To be noted: read-out: percent residual activity of MAPKAP-K2(h). Here is the method:
as §1
In a final reaction volume of 25 μl, MAPKAP-K2 (h) (5-10 mU) is incubated with 50 mM Na R-glycerophosphate pH 7.5, 0.1 mM EGTA, 30 μM KKLNRTLSVA (SEQ ID NO:212), 10 mM MgAcetate and [gamma-33P-ATP] (specific activity approx. 500 cpm/pmol, concentration as required). The reaction is initiated by the addition of the MgATP mix. After incubation for 40 minutes at room temperature, the reaction is stopped by the addition of 5 μl of a 3% phosphoric acid solution. […]

A further assay addresses PAK4(h) (Homo sapiens, UniProt O96013). Particulars: read-out: percent residual activity of PAK4(h). Here is the method:
as §1
as §2, with “PAK4” for “TrkB”, “0.8” for “0.1”, “myelin basic protein,” for “poly(Glu, Tyr) 4:1,”, “P30 filtermat” for “Filtermat A”

Another assay has as its target Arg(m) (Mus musculus, UniProt Q4JIM5). Particulars: read-out: percent residual activity of Arg(m). Here is the method: as §1
as §2, with “Arg (m)” for “TrkB (h)”, “50 μM EAIYAAPFAKKK (SEQ ID NO:206),” for “0.1 mg/ml poly(Glu, Tyr) 4:1,”, “P30 filtermat” for “Filtermat A”

For another assay, the target named is Flt3(h) (Homo sapiens, UniProt P36888). Particulars: read-out: percent residual activity of Flt3(h). Here is the method: as §1
as §2, with “Flt3” for “TrkB”, “50 μM EAIYAAPFAKKK (SEQ ID NO:206),” for “0.1 mg/ml poly(Glu, Tyr) 4:1,”, “P30 filtermat” for “Filtermat A”

Sequence of Ros(h) (P08922 28-2347): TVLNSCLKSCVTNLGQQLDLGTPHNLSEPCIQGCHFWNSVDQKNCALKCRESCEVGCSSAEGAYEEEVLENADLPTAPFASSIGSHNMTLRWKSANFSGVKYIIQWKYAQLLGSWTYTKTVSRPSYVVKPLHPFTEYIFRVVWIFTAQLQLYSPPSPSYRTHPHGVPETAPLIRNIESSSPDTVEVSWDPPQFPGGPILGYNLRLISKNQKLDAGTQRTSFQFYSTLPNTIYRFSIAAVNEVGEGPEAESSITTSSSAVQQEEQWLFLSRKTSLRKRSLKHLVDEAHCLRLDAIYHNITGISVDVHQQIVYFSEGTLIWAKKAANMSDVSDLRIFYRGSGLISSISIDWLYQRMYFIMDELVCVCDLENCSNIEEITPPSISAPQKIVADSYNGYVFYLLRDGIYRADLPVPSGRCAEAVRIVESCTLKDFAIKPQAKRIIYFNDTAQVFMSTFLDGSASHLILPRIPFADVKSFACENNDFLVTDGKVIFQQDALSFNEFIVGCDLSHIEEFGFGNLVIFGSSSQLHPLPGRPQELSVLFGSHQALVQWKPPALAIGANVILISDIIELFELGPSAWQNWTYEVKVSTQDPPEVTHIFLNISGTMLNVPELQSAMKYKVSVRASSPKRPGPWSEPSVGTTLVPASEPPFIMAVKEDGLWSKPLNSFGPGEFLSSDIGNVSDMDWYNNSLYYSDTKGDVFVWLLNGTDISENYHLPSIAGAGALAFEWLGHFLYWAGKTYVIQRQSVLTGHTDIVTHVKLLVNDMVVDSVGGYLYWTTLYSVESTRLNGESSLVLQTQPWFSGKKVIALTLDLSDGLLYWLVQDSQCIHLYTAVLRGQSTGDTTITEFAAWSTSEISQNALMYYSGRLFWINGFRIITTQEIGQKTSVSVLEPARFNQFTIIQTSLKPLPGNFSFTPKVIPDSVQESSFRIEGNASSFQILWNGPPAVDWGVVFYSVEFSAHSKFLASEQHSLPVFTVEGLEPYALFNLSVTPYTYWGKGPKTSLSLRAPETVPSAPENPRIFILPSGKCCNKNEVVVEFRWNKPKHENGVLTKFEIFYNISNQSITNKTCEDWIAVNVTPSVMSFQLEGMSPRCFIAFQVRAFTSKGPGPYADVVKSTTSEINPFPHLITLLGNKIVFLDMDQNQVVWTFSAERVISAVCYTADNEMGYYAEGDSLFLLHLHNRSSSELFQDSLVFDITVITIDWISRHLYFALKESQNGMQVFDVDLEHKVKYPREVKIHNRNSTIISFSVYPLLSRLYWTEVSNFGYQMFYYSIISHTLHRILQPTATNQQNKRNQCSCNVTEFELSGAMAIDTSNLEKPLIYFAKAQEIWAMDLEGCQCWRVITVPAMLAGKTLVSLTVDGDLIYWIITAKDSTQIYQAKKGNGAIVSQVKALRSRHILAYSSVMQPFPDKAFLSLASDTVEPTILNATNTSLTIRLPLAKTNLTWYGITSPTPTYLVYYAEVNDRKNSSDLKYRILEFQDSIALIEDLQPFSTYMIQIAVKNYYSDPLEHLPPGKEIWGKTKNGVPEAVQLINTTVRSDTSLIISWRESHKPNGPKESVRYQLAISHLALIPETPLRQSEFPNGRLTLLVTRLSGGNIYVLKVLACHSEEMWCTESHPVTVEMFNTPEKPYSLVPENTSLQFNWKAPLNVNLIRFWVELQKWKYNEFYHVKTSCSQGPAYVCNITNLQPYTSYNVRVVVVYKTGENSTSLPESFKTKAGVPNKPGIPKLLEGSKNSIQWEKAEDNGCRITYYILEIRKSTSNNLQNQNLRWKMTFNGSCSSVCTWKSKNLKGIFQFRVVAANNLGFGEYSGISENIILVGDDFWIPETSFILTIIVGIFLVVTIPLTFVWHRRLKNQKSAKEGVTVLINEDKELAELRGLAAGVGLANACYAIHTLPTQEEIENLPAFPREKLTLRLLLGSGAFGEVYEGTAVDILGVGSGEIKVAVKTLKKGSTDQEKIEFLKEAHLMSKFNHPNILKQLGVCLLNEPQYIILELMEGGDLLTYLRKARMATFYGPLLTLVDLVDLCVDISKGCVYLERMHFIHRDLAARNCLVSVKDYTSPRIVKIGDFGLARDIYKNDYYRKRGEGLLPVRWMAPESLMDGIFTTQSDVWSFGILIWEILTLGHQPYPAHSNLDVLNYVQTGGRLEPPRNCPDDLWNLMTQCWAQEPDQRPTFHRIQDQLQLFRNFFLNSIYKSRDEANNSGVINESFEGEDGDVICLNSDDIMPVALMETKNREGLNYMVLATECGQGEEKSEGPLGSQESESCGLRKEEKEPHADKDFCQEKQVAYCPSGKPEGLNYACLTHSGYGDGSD
Sequence of Arg(m) (Q4JIM5 whole entry): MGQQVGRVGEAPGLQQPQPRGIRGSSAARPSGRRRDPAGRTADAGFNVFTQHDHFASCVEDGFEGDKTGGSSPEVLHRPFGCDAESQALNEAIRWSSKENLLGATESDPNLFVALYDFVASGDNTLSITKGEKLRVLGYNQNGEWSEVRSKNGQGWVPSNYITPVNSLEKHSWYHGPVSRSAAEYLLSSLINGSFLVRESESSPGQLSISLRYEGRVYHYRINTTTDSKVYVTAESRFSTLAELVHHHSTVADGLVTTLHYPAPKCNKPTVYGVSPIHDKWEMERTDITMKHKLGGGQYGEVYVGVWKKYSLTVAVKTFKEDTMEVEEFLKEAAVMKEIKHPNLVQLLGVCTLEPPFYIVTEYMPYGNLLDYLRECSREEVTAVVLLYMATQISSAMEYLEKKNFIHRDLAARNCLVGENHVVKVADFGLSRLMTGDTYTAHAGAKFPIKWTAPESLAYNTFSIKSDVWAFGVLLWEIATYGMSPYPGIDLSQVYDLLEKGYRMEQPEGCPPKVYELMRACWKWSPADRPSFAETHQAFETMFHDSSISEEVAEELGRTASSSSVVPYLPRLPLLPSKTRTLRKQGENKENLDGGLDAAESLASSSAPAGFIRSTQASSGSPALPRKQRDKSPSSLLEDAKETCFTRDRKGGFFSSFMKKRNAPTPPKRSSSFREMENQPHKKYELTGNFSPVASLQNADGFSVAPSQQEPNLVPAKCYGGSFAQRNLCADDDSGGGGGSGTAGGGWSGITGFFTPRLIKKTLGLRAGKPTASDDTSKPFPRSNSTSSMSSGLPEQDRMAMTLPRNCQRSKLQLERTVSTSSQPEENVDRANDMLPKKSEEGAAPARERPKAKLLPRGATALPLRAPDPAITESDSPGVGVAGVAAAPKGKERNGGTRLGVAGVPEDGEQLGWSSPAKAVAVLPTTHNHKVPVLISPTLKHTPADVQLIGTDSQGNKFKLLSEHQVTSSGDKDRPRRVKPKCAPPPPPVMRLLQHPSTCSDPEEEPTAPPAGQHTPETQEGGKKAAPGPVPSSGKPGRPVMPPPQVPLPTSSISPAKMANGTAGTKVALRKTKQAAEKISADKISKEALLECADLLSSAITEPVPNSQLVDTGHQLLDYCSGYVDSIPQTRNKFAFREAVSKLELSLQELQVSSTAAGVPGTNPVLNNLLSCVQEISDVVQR
Sequence of PAK4(h) (O96013 whole entry): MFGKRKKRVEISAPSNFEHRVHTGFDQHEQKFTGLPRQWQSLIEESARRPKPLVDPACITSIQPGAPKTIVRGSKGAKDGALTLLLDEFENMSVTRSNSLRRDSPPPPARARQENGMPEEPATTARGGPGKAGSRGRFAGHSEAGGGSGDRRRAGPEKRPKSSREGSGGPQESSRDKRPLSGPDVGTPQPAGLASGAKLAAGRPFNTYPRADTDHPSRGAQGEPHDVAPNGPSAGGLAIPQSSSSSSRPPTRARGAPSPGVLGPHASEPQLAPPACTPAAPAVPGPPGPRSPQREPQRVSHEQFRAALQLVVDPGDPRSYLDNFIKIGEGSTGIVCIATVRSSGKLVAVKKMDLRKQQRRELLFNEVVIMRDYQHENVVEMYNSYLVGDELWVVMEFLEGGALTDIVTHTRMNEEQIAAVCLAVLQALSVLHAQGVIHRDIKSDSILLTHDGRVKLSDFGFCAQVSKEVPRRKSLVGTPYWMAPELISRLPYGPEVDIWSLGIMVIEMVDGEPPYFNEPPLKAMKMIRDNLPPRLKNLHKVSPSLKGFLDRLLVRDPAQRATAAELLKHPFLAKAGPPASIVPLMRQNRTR

Turning to `CN1CCCC1CCNC(=O)c1cn2c3c(c(N4CCC(c5cnccn5)C4)c(F)cc3c1=O)Oc1cc3ccccc3cc1-2` (stereo not drawn) [Compound A-1], the remaining activity at 2.5 µM at TrkB(h) came out at 44%; at Ros(h) it was 115%; on MAPKAP-K2(h) it was 79%; at PAK4(h), 99%; at Arg(m), 43%; at Flt3(h), 32%.
For the compound `CC(=O)N1CCN(c2ccc3c(=O)c(C(=O)NCCN4CCCC4)c4n(C)c5ccccc5n4c3n2)CC1` [Compound B-1], the remaining activity at 2.5 µM on TrkB(h) was 118%; on Ros(h), 113%; at MAPKAP-K2(h), 99%; at PAK4(h) it was 96%; at Arg(m) it was 102%; on Flt3(h) it was 100%.
